In ChEMBL document CHEMBL1158243, “Hydroxycornexistin: A New Phytotoxin from Paecilomyces variotii” (J Nat Prod, 1996):
Activity calls are given as the source filed them. The calls are words filed in the database; no cut-off is given here.

Legend:
Type in all cases: functional, organism-based
Echinochloa crus-galli = experiment: Herbicidal activity against Echinochloa crus-galli assessed as plant death at 7.81 ppm after 2 weeks
Zea mays [1] = experiment: Herbicidal activity against Zea mays assessed as plant death at 15.63 ppm after 2 weeks
Zea mays [2] = experiment: Herbicidal activity against Zea mays assessed as plant death at 7.81 ppm after 2 weeks
Ipomoea hederacea [3] = experiment: Herbicidal activity against Ipomoea hederacea assessed as plant death at 15.63 ppm after 2 weeks
Xanthium strumarium [4] = experiment: Herbicidal activity against Xanthium strumarium assessed as plant death at 31.25 ppm after 2 weeks
Amaranthus [5] = experiment: Herbicidal activity against Amaranthus sp. assessed as plant death at 7.81 ppm after 2 weeks
Sorghum bicolor [6] = experiment: Herbicidal activity against Sorghum bicolor assessed as plant death at 7.81 ppm after 2 weeks
Setaria faberi [7] = experiment: Herbicidal activity against Setaria faberi assessed as plant death at 7.81 ppm after 2 weeks
Setaria faberi [8] = experiment: Herbicidal activity against Setaria faberi assessed as plant death at 15.63 ppm after 2 weeks
Fallopia convolvulus [9] = experiment: Herbicidal activity against Fallopia convolvulus assessed as plant death at 31.25 ppm after 2 weeks
Fallopia convolvulus [10] = experiment: Herbicidal activity against Fallopia convolvulus assessed as plant death at 15.63 ppm after 2 weeks
Ipomoea hederacea [11] = experiment: Herbicidal activity against Ipomoea hederacea assessed as plant death at 7.81 ppm after 2 weeks
Sorghum bicolor [12] = experiment: Herbicidal activity against Sorghum bicolor assessed as plant death at 31.25 ppm after 2 weeks
Sorghum bicolor [13] = experiment: Herbicidal activity against Sorghum bicolor assessed as plant death at 15.63 ppm after 2 weeks
Abutilon theophrasti = experiment: Herbicidal activity against Abutilon theophrasti assessed as plant death at 7.81 ppm after 2 weeks
Amaranthus [14] = experiment: Herbicidal activity against Amaranthus sp. assessed as plant death at 31.25 ppm after 2 weeks
Avena sativa [15] = experiment: Herbicidal activity against Avena sativa assessed as plant death at 15.63 ppm after 2 weeks
Ipomoea hederacea [16] = experiment: Herbicidal activity against Ipomoea hederacea assessed as plant death at 31.25 ppm after 2 weeks
Avena sativa [17] = experiment: Herbicidal activity against Avena sativa assessed as plant death at 7.81 ppm after 2 weeks
Triticum aestivum [18] = experiment: Herbicidal activity against Triticum aestivum assessed as plant death at 7.81 ppm after 2 weeks
Triticum aestivum [19] = experiment: Herbicidal activity against Triticum aestivum assessed as plant death at 15.63 ppm after 2 weeks
Avena sativa [20] = experiment: Herbicidal activity against Avena sativa assessed as plant death at 31.25 ppm after 2 weeks
Xanthium strumarium [21] = experiment: Herbicidal activity against Xanthium strumarium assessed as plant death at 7.81 ppm after 2 weeks
Digitaria sanguinalis = experiment: Herbicidal activity against Digitaria sanguinalis assessed as plant death at 7.81 ppm after 2 weeks
Amaranthus [22] = experiment: Herbicidal activity against Amaranthus sp. assessed as plant death at 15.63 ppm after 2 weeks

## CCC[C@H]1C2=C(C/C(=C/CO)[C@@H](O)CC(=O)[C@H]1O)C(=O)OC2=O
Echinochloa crus-galli
  Activity: inactive
Zea mays [1]
  Activity: inactive
Zea mays [2]
  Activity: inactive
Ipomoea hederacea [3]
  Activity: inactive
Xanthium strumarium [4]
  Activity: Active
Amaranthus [5]
  Activity: inactive
Sorghum bicolor [6]
  Activity: inactive
Setaria faberi [7]
  Activity: inactive
Setaria faberi [8]
  Activity: inactive
Fallopia convolvulus [9]
  Activity: Active
Fallopia convolvulus [10]
  Activity: Active
Ipomoea hederacea [11]
  Activity: inactive
Sorghum bicolor [12]
  Activity: inactive
Sorghum bicolor [13]
  Activity: inactive

## C/C=C1/CC2=C(C(=O)OC2=O)[C@H](CCC)[C@H](O)C(=O)C[C@@H]1O
Abutilon theophrasti
  Activity: inactive
Echinochloa crus-galli
  Activity: inactive
Amaranthus [14]
  Activity: inactive
Avena sativa [15]
  Activity: inactive
Ipomoea hederacea [16]
  Activity: inactive
Zea mays [2]
  Activity: inactive
Avena sativa [17]
  Activity: inactive
Ipomoea hederacea [3]
  Activity: inactive
Amaranthus [5]
  Activity: inactive
Triticum aestivum [18]
  Activity: inactive
Sorghum bicolor [6]
  Activity: inactive
Triticum aestivum [19]
  Activity: inactive
Avena sativa [20]
  Activity: Active
Xanthium strumarium [21]
  Activity: inactive
Digitaria sanguinalis
  Activity: inactive
Ipomoea hederacea [11]
  Activity: inactive
Amaranthus [22]
  Activity: inactive
Sorghum bicolor [13]
  Activity: inactive
